Data reported in patent US10995068B2, “Synthetic sphingolipid-like molecules, drugs, methods of their synthesis and methods of treatment” (The Regents of the University of California, priority 2015, dated 2021).

What was measured:
[1] = test system: PC3 prostate cancer cells; assay: Cell Titer Glo proliferation assay in PC3; assay type: cell-based, human; settings: Cell Titer Glo, 72 h; Mean ± SEM, n ≥ 3; read-out: IC50 values in prostate cancer cell lines, PC3
Method in brief: (§1)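 Cells plated at 1,000 cells/well and left at least 24 h, then exposed to compound for 72 h. Permeabilised with 0.1% Triton-X100, lysed with Cell Titer-Glo reagent, luminescence read; IC50 from dose-response curves. PC3 grown in F12K with 10% FCS, DU145 in MEM with 10% FCS and pyruvate.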

[2] = test system: DU145 prostate cancer cells; assay: Cell Titer Glo proliferation assay in DU145; assay type: cell-based, human; settings: 72 h, Mean ± SEM, n ≥ 3, read-out: IC50 values in prostate cancer cell lines, DU145
Method in brief: as §1

[3] = test system: subcutaneous SW620 xenograft tumors; assay: SW620 xenograft study in nude mice; assay type: in vivo; settings: 20 mg/kg daily by intraperitoneal injection
Procedure: In even another exemplary study, anti-neoplasm potency of the constrained pyrrolidine sphingolipid-like compounds in xenograft tumor animal studies. Nude mice bearing subcutaneous SW620 xenograft tumors were treated daily with 10 mg/kg FTY720 or 20 mg/kg of compounds 5 or 15 by intraperitoneal injection. […] Furthermore, these compounds retain many of the beneficial abilities of FTY720, such as, for example water solubility, oral bioavailability, and anti-tumor activity but no longer trigger bradycardia. Thus, these compounds are ideal for medicaments and treatments for neoplasms.
SW620 and SW480 xenograft studies: For SW620 xenograft studies, two and one half million luciferase-expressing SW620 colon cancer cells suspended in PBS with 2% FCS are injected subcutaneously in the flank of 7 week old male nude mice (Charles Rivers Labs, Crl:NU(NCr)-Foxn1nu). When tumors reached 100 mm^3 in volume, mice are assigned to groups with matched average tumor volumes and animal weights. Four groups containing 7 mice are treated intraperitoneally with either vehicle (0.9% saline), 10 mg/kg FTY720, or 20 mg/kg compound 5 or compound 15. Tumor length and width are measured with calipers at 7 and 11 days of treatment. Tumor volume is calculated using the formula volume (mm^3)=length [mm]×(width [mm])^2×0.52. The average fold change in the volume of each tumor over time is shown.

[4] = test system: fusion of LC3-positive autophagosomes with LAMP1-positive lysosomes; assay: Autophagosome-lysosome fusion in chloroquine-treated cells; assay type: cell-based
Procedure: It is known in the art that cells adapt to nutrient stress by increasing autophagic flux. However, autophagosome-lysosome fusion reactions depend upon […] release via TRPML1 channels that are activated by PI(3,5)P2. […] Chloroquine (CQ) is molecule that stabilizes the transient autophagosomes. Cells were treated with CG to stabilize autophagolysosomes and subsequently treated with FTY720, SH-BC-893, or YM201636. […] Phosphatidylinositol 5-Phosphate (PI(5)P) is essential for autophagosome biogenesis upon glucose depletion. PI(5)P is produced by dephosphorylating PI(3,5)P2, and thus PI(5)P might also be mis-localized in SH-BC-893-treated cells, and thus also contributing to the disruption of autophagosome formation. […] Thus, SH-BC-893 inhibited both autophagosome formation and degradation. As a control, Vac14 over-expression limited vacuolation (FIGS. 55F, 61F, and 62B) and rescued autophagic flux in SH-BC-893-treated cells (FIGS. 61A, 61B, 61D and 61E).
(§2) Light Microscopy: Brightfield and epifluorescence microscopy were conducted using a Nikon TE2000-S fluorescence microscope; confocal microscopy was performed on a Zeiss LSM780 confocal microscope or Nikon Eclipse Ti spinning disk confocal microscope. […] Co-localization was determined using JACoP plugin in ImageJ software. Macropinocytosis was measured after 16 h incubation in serum-free DMEM. p53−/−; LSL-K-RasG12D MEFs before (LSL) or after (KRasG12D) introduction of Cre were serum starved for 16 h and then treated with macropinocytosis inhibitor 5-(N-ethyl-N-isopropyl) amiloride (EIPA, 75 μM) for 1 h or SH-BC-893 for 6 h. Oregon Green dextran (Life Technologies, cat #D7173) (1 mg/mL) and Lysotracker Red (Life Technologies, cat #L-7525) (1:2,000 dilution) were added for 30 min and live cells were evaluated on the spinning disc confocal microscope. […]

[5] = test system: K-RasG12D expressing cells; assay: Macropinosome fusion with lysosomes; assay type: cell-based; settings: dextran
Description: In cells with activated Ras, macropinocytosis might also confer resistance to nutrient transporter down-regulation. However, PI(3,5)P2 is also required for macropinosome degradation. […] Macropinosomes that fail to fuse with lysosomes would not be able to supply nutrients, such as amino acids. Thus, by disrupting PIKfyve localization, sphingolipid-like compounds limit access to lysosome-derived nutrients at the same time it down-regulates transporters for amino acids and glucose.
as §2

Compound | IC50 [1] | IC50 [2] | tumor growth of SW620 xenografts [3] | fusion of LC3-positive autophagosomes with LAMP1-positive lysosomes [4] | macropinosome fusion with lysosomes [5]
CCCCCCCCc1ccc([C@H]2CCN[C@@H]2COC)cc1.Cl [Compound 15] | 6.3 ± 0.3 µM | 5.9 ± 0.3 µM | inhibited tumor growth |  | 
Nc1ccc(C(=O)Nc2cccc(-c3nc(N4CCOCC4)c4oc5ncccc5c4n3)c2)cn1 [YM201636, reference compound] |  |  |  | reduced fusion | dramatically reduced macropinosome fusion with lysosomes
